According to the METLIN SMRT retention time set (Domingo-Almenara et al. 2019):

Experiment: gradient 5% acetonitrile 3 min, to 50% in 2 min, to 85% in 15 min, held 3 min, 100 µL/min
Conditions: column: Zorbax Extend-C18 2.1 x 50 mm; eluents: water / acetonitrile, 0.1% formic acid
Procedure, shortened: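 Using water and acetonitrile that each contained 0.1% formic acid, mixtures of ~100 pure standards were separated at 100 μL/min on a Zorbax Extend-C18 column (2.1 × 50 mm, 1.8 μm). The HPLC fed a quadrupole time-of-flight mass spectrometer working in positive and negative ionization mode, with dead and dwell volumes of 40 μL and 900 μL. Data were acquired over 3 months. Retention time was read from computationally picked adduct peaks after manual inspection of each.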

SMILES | RP-LC retention time
COc1ccc(-c2noc(Cn3c(=O)n(CC(C)C)c(=O)c4ccccc43)n2)cc1OC | 1050 s
Cn1c(=O)c2cc(C(=O)Nc3ccc4c(c3)OCCO4)cnc2n(-c2ccc(F)cc2)c1=O | 856 s
Cc1ccc(NC(=O)Cn2c(=O)n(-c3ccc(F)cc3)c(=O)c3c2cc(C)n3C)cc1 | 800 s
Cc1ccc(-c2nc(Cn3cccc3C(=O)NC3CCCC3)no2)cc1 | 1050 s
CCC1CN(C(=O)N2CCC(C(=O)NCCN3CCOCC3)CC2)c2cc(C)ccc2O1 (configuration not stated) | 632 s
CCS(=O)(=O)N1CCCc2cc(C(=O)Nc3ccccc3Br)ccc21 | 986 s
O=C(OCCN1CCOCC1)C1(c2ccccc2)CCCCC1 | 755 s
COc1nc2ccccc2nc1N1CCCC(C(=O)N2CCN(c3ccccc3F)CC2)C1 (configuration not stated) | 1240 s
CCOc1ccc(-c2noc(N3CCC(C(=O)N4CCOCC4)CC3)n2)cc1OC | 736 s
O=C(CC(c1ccc(F)cc1)N1Cc2ccccc2C1=O)NCCCN1CCCC1 (configuration not stated) | 619 s
COc1ccc(OC)c(C(C)NC(=O)C2CCCN(c3nccnc3Sc3ccc(C)cc3)C2)c1 (configuration not stated) | 1150 s
COc1ccc(CNC(=O)[C@@]23CCCC[C@H]2N(C)C(=O)CC3)c(OC)c1 | 663 s
Cc1c(Cl)cccc1S(=O)(=O)N1CCc2c(c(-c3nnc(-c4ccccc4F)o3)nn2C)C1 | 1050 s
Cc1ccc(-c2ncc(NC(=O)CC(C)C)cn2)cc1 | 961 s
O=C(c1ccc2c(c1)CCCN2S(=O)(=O)c1ccc(Cl)cc1)N1CCOCC1 | 880 s
COCC(=O)Nc1cnc(-c2ccc(C(F)(F)F)cc2)nc1 | 922 s
Cc1cc(-c2nnc(-c3ccc(F)cc3)o2)c(C)n1CC(=O)NCc1ccc(F)cc1 | 945 s
Cc1nn(CCCC(=O)NCCN2CCCC2)c(=O)c2c(-n3cccc3)n(-c3ccccc3)nc12 | 666 s
CCCn1cc(C(=O)Nc2ccc3c(c2)OCCO3)c2cccnc21 | 833 s
Cc1ccc(S(=O)(=O)n2nc(-c3cccc(C)c3)nc2N)cc1 | 957 s
CC(C)CN1CC(c2nc(-c3ccccc3)no2)C2(CCCC2)C1 (configuration not stated) | 763 s
CCc1nc(-c2csc(S(=O)(=O)N3CCCC(C(=O)NC(C)C)C3)c2)no1 (configuration not stated) | 865 s
CCNC(=O)c1sc2nc(-c3cccc(F)c3)c(NCCOC)n2c1C | 800 s

SMILES | RP-LC retention time
COc1ccc(C(=O)n2c(SC)nc3ccccc32)cc1OC | 827 s
COc1ccc(N2C(=O)N[C@@H]3C[C@]2(C)Oc2ccc(C)cc23)cc1OC | 735 s
Cn1nc(-c2nnc(-c3ccccc3)o2)c2c1CCN(S(=O)(=O)c1ccc(Cl)cc1)C2 | 992 s
O=C(NC1CCCCC1)c1cccn1Cc1noc(-c2ccccc2)n1 | 1070 s
CCN1CCn2cc(S(=O)(=O)Nc3ccc(F)cc3)cc2C1=O | 696 s
CCOC(=O)c1noc2ncnc(NCCCN3CCN(c4ccc(F)cc4)CC3)c12 | 599 s
Cc1ccc(-c2csc(NC(=O)c3sc(C)nc3C)n2)cc1 | 974 s
Cc1ccc(-c2cc(C(=O)NCC(C)C)n(C)c2)cc1 | 1070 s
CNCc1ccc(-c2cc(Cl)ccc2Cl)o1 | 653 s
CCc1nnc(-c2ccc3ccn(CC(=O)N4CCC5(CC4)OCCO5)c3c2)o1 | 722 s
O=C(Nc1nnc(SCc2cn3ccccc3n2)s1)C1(c2cccs2)CCCC1 | 611 s
CC1CCC(NC(=O)Cn2nc(C(=O)N3CCCC3)c3ccccc32)CC1 (configuration not stated) | 892 s
COc1ccccc1N(CN1CCCC1=O)C(=O)COc1ccccc1 | 699 s
COc1ccccc1-c1csc(-c2nnn(-c3cccc(Cl)c3)c2N)n1 | 1210 s
Cc1ccc(-n2ncc3c(NCCN(C)C)ncnc32)cc1Cl | 669 s
COc1cc(OC)c2c(=O)cc(-c3cccnc3)oc2c1 | 733 s
COCCN1C(=O)CS(=O)C12CCN(C(=O)c1ccsc1)CC2 (configuration not stated) | 593 s
CC1(C)Cc2cccc(OCC(=O)Nc3ncc([N+](=O)[O-])s3)c2O1 | 906 s
CCN1CCN(CCCNC(=O)C2=Cc3cc(OC)ccc3OC2)CC1 | 578 s
O=C(COc1ncccn1)Nc1ccc(F)c(F)c1 | 665 s
Cc1ccc(S(=O)(=O)N(C)CC2CCOCC2)c(C)c1 | 896 s
O=C(Cn1ccnc1-c1ccnc(N2CCSCC2)c1)N1CCN(c2ccccc2)CC1 | 697 s
CC(C)Cn1c(=O)c2cc(C(=O)NCc3cccs3)nn2c2ccccc21 | 995 s

SMILES | RP-LC retention time
CCOc1ccc(NC(=O)c2cc(S(=O)(=O)N3CCCC(C)C3)cn2C)cc1 (configuration not stated) | 1080 s
CC(C)n1c(=O)c(NCc2ccccc2Br)nc2ccncc21 | 699 s
Cc1noc(-c2ccc(OC3CN(C(=O)Cc4ccsc4)C3)cc2)n1 | 826 s
Cn1nc(C(=O)N2CCC3(CC2)N=C(c2ccc(Br)cc2)NO3)c2ccccc21 | 916 s
CCc1nccn1Cc1noc(-c2cccc(OC)c2)n1 | 557 s
CCCc1noc(-c2ccc(-n3ncc(C(=O)NCC)c3C)nc2)n1 | 808 s
O=C(CCNc1c(-c2cccc(F)c2)nc2cnccn12)NCc1ccccc1F | 742 s
CCOc1ccc(CNC(=O)C2CCN(S(=O)(=O)c3cn(C)cn3)CC2)cc1 | 692 s
O=C(Nc1nnc(-c2cc3ccccc3o2)o1)c1ccc([N+](=O)[O-])o1 | 792 s
Cc1ccc(Cl)cc1N1CCN(c2cc(C(=O)O)c3cc(NC(=O)C4CCCC4)ccc3n2)CC1 | 851 s
Cc1ccc2nsnc2c1S(=O)(=O)NCCc1c(C)[nH]c2ccccc12 | 948 s
O=C(NCC1CCN(c2cc(-c3ccncc3)[nH]n2)CC1)c1ccc2c(c1)OCO2 | 598 s
CC(C)C(=O)Nc1ccc(-n2cnc(C(=O)NCC3CCCO3)c2)nc1 (configuration not stated) | 647 s
Cc1ccc(S(=O)(=O)[C@H]2CS(=O)(=O)C[C@@H]2N2CCN(c3ccccc3F)CC2)cc1 | 994 s
O=C(Nc1ccc(Cl)cc1F)N1CCc2nc[nH]c2C1 | 584 s
CC(C)NC(=O)c1ccc(-c2nc3cc(NS(=O)(=O)c4ccc(F)cc4F)ccc3n2C)cc1 | 697 s
COc1ccc(Cl)cc1NC(=O)Nc1ccc2c(c1)C(=O)NCC2 | 748 s
COc1cccc(NC(=O)Nc2ccc(CC(N)=O)cc2)c1OC | 636 s
CC(C)CC(=O)N1CCc2cc(CNC(=O)c3ccnn3C)ccc21 | 754 s
Cc1nc(C)c(C(=O)N2CCCCCNC(=O)[C@@H]3CCC[C@@H]32)s1 | 638 s
COC(=O)c1cc2n(n1)CC(C)(C(=O)NC1CCCC1)N(c1ccccc1C)C2=O (configuration not stated) | 801 s
